Data: BigSolDB 2.1

O=P(c1ccccc1)(c1ccccc1)c1cc(O)ccc1O
Settings	solubility (mole fraction)
in 2-ethoxyethanol, 299.43 K	0.0108
in 2-ethoxyethanol, 303.25 K	0.0113
in 2-ethoxyethanol, 308.24 K	0.0124
in 2-ethoxyethanol, 313.46 K	0.0137
in 2-ethoxyethanol, 318.15 K	0.0154
in 2-ethoxyethanol, 323.27 K	0.0168
in 2-ethoxyethanol, 328.26 K	0.018
in 2-ethoxyethanol, 333.45 K	0.0198
in 2-ethoxyethanol, 338.75 K	0.0223
in 2-ethoxyethanol, 343.15 K	0.0236
in 2-ethoxyethanol, 348.15 K	0.0252
in 2-ethoxyethanol, 353.14 K	0.0279
in 2-ethoxyethanol, 358.06 K	0.0295
in 2-ethoxyethanol, 363.15 K	0.0316
in 2-ethoxyethanol, 368.16 K	0.0348
in acetone, 299.45 K	0.00175
in acetone, 303.26 K	0.00188
in acetone, 308.24 K	0.00216
in acetone, 313.47 K	0.00236
in acetone, 318.13 K	0.00262
in acetone, 323.26 K	0.00296
in acetone, 328.25 K	0.00332
in ethanol, 293.95 K	0.00571
in ethanol, 298.26 K	0.00634
in ethanol, 303.44 K	0.00721
in ethanol, 308.26 K	0.00787
in ethanol, 313.45 K	0.00903
in ethanol, 318.47 K	0.00979
in ethanol, 323.35 K	0.0109
in ethanol, 328.43 K	0.0117
in ethanol, 333.35 K	0.0127
in methanol, 294.16 K	0.00625
in methanol, 298.35 K	0.00707
in methanol, 303.87 K	0.00814
in methanol, 308.85 K	0.00946
in methanol, 313.34 K	0.0108
in methanol, 318.15 K	0.0123
in methanol, 323.56 K	0.0138
in toluene, 293.96 K	0.00071
in toluene, 298.25 K	0.00075
in toluene, 303.47 K	0.00078
in toluene, 308.24 K	0.00082
in toluene, 313.45 K	0.00086
in toluene, 318.43 K	0.00089
in toluene, 323.38 K	0.00094
in toluene, 328.45 K	0.00099
in water, 297.16 K	0.00011
in water, 308.15 K	0.00012
in water, 313.34 K	0.00013
in water, 318.15 K	0.00014
in water, 323.47 K	0.00014
in water, 328.46 K	0.00015
in water, 333.25 K	0.00015
in water, 338.17 K	0.00016
in water, 343.25 K	0.00017
in water, 348.36 K	0.00017
in water, 353.14 K	0.00018
in water, 358.13 K	0.00018
in water, 363.27 K	0.00019
in water, 368.26 K	0.00019
